From ChEMBL document CHEMBL5465560, “Selectivity Literature for EUbOPEN Chemogenomic Library” (2024)
Each block holds one compound with its values, some of them ahead of it.

Key:
[1] = molecular target: Putative phosphatidylinositol 4-kinase alpha-like protein P2 (Homo sapiens) (UniProt A4QPH2); assay: Selectivity interaction (ActivX KiNativ screen (kinase selectivity in THP-1 cell lysates)) EUB0000639a PI4KAP2; type: subcellular; conditions: lysate
[2] = molecular target: Mitogen-activated protein kinase kinase kinase 11 (Homo sapiens) (UniProt Q16584); assay: Selectivity interaction (ActivX KiNativ screen (kinase selectivity in THP-1 cell lysates)) EUB0000639a MAP3K11; type: subcellular; conditions: lysate, at 0.01 µM
Mitogen-activated protein kinase kinase kinase 11 (Homo sapiens), sequence (Q16584 whole entry, looked up): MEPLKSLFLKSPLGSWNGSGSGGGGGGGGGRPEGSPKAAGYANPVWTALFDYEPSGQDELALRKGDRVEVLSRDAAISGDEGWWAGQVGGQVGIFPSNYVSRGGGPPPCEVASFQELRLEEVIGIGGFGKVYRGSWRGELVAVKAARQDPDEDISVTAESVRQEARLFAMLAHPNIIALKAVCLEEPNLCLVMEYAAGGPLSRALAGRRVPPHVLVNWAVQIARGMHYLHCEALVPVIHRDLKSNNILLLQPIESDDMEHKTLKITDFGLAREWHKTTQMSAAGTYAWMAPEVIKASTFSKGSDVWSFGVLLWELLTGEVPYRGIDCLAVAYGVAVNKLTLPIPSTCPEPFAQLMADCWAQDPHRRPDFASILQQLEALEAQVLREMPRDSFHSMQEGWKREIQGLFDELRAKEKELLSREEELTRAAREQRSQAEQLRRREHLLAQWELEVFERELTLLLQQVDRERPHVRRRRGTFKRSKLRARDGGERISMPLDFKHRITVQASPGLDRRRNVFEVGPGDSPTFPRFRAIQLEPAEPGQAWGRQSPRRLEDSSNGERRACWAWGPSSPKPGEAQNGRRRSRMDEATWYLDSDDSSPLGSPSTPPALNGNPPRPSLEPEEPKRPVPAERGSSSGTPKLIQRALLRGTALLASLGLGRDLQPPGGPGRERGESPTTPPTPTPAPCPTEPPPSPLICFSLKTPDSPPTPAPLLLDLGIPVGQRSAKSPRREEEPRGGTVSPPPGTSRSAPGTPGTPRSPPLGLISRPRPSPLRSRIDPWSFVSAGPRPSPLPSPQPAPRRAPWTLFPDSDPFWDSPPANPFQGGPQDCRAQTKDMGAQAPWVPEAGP

[3] = molecular target: T1, cAMP-dependent protein kinase catalytic subunit PRKX (Homo sapiens) (UniProt P51817); assay: Selectivity interaction (KinomeScan (DiscoverX)) EUB0001049a PRKX; conditions: at 1 µM
T1 sequence (whole entry): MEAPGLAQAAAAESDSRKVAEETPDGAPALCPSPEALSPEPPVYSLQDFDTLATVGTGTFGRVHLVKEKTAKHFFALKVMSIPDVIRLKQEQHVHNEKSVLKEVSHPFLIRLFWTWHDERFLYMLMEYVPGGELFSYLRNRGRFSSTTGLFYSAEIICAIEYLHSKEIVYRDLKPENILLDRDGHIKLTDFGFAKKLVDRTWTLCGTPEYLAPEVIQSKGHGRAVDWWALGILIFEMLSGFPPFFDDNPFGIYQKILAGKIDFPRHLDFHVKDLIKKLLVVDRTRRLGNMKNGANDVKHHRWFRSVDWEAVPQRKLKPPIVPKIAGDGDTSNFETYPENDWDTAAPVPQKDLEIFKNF

[4] = molecular target: T2, Phosphatidylinositol 5-phosphate 4-kinase type-2 beta (Homo sapiens) (UniProt P78356); assay: Selectivity interaction (Ambit KINOMEscan and KiNATiv profiling in Jurkat cells) EUB0000090b PIP4K2B; type: cell-based; conditions: at 1 µM
T2 sequence (whole entry): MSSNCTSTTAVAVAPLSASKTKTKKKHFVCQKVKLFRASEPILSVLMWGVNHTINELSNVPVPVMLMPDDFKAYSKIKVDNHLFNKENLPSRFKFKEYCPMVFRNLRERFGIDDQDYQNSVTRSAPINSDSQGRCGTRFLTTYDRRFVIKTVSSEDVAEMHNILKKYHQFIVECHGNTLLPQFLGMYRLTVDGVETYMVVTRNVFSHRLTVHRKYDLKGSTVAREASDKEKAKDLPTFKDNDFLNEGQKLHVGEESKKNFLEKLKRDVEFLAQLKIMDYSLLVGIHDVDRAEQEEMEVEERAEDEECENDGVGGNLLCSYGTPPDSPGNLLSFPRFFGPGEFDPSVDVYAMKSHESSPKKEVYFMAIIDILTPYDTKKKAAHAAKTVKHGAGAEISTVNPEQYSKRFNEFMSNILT

[5] = molecular target: T3, Myosin-IIIb (Homo sapiens) (UniProt Q8WXR4); assay: Selectivity interaction (KinomeScan (DiscoverX)) EUB0000045b MYO3B
T3 sequence (whole entry): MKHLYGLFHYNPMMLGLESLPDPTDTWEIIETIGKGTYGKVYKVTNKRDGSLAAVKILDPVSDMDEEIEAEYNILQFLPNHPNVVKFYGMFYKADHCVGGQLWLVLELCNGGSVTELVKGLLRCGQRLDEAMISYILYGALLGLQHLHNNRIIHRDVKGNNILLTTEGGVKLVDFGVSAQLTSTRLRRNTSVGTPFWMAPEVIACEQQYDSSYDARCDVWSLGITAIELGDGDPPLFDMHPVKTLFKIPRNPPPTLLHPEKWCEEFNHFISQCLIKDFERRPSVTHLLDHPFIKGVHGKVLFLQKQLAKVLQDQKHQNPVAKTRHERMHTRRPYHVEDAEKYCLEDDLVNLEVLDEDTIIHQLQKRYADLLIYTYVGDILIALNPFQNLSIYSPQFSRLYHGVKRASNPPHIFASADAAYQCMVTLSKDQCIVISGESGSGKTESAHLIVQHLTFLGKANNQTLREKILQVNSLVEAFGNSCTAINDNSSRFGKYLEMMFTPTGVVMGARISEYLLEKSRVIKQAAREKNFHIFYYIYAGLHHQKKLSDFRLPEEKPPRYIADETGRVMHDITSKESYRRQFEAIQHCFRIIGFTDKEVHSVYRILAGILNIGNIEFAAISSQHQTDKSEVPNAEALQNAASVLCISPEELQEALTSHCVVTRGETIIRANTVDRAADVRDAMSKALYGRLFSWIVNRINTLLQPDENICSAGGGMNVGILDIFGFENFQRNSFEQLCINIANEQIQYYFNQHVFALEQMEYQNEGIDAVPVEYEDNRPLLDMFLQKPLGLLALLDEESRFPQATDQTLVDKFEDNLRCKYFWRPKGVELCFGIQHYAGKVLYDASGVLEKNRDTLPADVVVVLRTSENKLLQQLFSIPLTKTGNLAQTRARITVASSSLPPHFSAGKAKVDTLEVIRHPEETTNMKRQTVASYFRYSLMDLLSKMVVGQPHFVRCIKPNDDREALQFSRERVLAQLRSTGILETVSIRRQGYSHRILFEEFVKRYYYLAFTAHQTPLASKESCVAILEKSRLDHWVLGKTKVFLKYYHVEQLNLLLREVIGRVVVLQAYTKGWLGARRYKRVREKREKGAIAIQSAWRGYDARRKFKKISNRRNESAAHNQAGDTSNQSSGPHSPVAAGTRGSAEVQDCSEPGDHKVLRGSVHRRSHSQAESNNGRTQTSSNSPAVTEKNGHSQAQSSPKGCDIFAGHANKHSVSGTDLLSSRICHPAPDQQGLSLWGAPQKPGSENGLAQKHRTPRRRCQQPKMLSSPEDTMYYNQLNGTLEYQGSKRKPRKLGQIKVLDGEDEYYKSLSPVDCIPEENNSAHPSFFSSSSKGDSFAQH

[6] = molecular target: T4, Dual specificity mitogen-activated protein kinase kinase 7 (Homo sapiens) (UniProt O14733); assay: Selectivity interaction (KinomeScan (DiscoverX)) EUB0000618a MAP2K7; conditions: at 10 µM
T4 sequence (whole entry): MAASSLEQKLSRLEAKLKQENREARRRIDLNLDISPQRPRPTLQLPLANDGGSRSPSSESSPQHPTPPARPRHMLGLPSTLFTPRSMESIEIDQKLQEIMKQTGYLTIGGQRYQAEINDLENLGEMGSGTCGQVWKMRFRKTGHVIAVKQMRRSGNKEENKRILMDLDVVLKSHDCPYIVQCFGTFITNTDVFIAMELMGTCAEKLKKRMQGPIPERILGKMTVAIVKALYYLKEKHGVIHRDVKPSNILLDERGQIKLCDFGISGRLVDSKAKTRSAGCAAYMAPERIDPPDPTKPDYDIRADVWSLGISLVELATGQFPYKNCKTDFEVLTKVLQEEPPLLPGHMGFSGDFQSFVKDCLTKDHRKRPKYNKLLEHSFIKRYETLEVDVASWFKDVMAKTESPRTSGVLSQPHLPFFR

[7] = molecular target: Serine/threonine-protein kinase 24 (Homo sapiens) (UniProt Q9Y6E0); assay: Selectivity interaction (KinomeScan (DiscoverX)) EUB0000618a STK24; conditions: at 10 µM
Serine/threonine-protein kinase 24 (Homo sapiens), sequence (Q9Y6E0 whole entry, looked up): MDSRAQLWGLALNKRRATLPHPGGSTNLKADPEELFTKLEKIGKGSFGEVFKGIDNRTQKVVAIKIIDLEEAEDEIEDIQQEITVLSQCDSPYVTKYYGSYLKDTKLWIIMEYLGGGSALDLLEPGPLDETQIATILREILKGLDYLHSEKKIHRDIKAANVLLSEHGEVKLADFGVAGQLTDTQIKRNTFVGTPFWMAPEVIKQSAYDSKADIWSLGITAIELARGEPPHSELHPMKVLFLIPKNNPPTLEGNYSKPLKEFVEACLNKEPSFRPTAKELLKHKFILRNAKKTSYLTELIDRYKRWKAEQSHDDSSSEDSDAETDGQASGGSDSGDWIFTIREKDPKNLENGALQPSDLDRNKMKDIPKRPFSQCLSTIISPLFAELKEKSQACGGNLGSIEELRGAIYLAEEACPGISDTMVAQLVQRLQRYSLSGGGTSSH

Putative phosphatidylinositol 4-kinase alpha-like protein P2 (Homo sapiens), sequence (A4QPH2 whole entry): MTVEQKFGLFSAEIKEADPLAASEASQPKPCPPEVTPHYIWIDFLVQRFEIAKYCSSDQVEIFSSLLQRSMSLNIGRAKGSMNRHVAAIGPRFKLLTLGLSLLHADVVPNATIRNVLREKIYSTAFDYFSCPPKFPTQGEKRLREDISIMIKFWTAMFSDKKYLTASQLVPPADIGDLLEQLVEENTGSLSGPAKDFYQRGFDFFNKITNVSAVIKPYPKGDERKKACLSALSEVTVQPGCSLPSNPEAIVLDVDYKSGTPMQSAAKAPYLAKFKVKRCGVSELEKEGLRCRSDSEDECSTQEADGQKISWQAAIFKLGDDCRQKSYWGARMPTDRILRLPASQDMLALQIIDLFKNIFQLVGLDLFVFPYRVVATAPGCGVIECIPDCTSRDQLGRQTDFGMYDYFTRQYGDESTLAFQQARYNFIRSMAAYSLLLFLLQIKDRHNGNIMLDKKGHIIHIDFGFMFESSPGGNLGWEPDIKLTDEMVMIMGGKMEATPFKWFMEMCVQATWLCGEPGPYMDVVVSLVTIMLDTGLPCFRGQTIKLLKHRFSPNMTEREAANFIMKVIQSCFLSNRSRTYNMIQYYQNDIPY

% of inhibition ([1]; at 0.01 µM): 7.2%
% of inhibition ([1]; at 0.04 µM): -7.1%
% of inhibition ([1]; at 0.2 µM): -24.4%
% of inhibition ([1]; at 1 µM): -6%
% of inhibition ([1]; at 5 µM): 38.5%
% of inhibition [2]: 4.9%
SMILES: CC[C@@H]1[C@H](F)C(=O)N[C@@H]1COc1nccc2cc(C(N)=O)c(OC)cc12 [ZIMLOVISERTIB]

SMILES: COc1cc(Nc2nc(C)cc(-c3cnn4nc(OC)ccc34)n2)cc(C(F)(F)F)c1
% of control [3]: 87%

SMILES: CN(C)C/C=C/C(=O)Nc1ccc(C(=O)N2CCCC(Nc3ncc(Cl)c(-c4c[nH]c5ccccc45)n3)C2)cc1 (configuration not stated)
% of control [4]: 83%

SMILES: C=CC(=O)Nc1cc(-n2c(=O)ccc3cnc4ccc(-c5ccc(NS(C)(=O)=O)cc5)cc4c32)ccc1C
% of control ([5]; at 1 µM): 92%
% of control ([5]; at 10 µM): 100%

SMILES: O[C@H]1CC[C@H](Nc2ncc3nc(Nc4c(F)cc(F)cc4F)n([C@H]4CCOC4)c3n2)CC1
% of control [6]: 94%
% of control [7]: 88%
